We go through 16 compounds from patent US11034725B2, “Compositions and methods for treating cardiovascular disease” (Genentech, Inc., priority 2016, dated 2021).

The subject of one test is His-EGF(A)-Fc. Put plainly: His-EGF(A)-Fc TR-FRET counterscreen. In general terms: In TR-FRET formats the signal depends on donor and acceptor labels being close together.
The target in a further test is T1, PCSK9Δhelix (Homo sapiens, UniProt Q8NBP7).
T1 construct: Human PCSK9 construct M1-Q692 with an engineered TEV site (residue deletion Y166, R167); made in house; host or cells: CHO
Put plainly: PCSK9Δhelix/Ab20 TR-FRET binding assay.

For a further test, the target named is PCSK9 (Homo sapiens, UniProt Q8NBP7). Briefly: PCSK9/EGF(A) TR-FRET binding assay.
[1] abbreviates: TR-FRET, Example 7, read-out: PCSK9Δhelix/Ab20 IC50.
The mark [2] stands for this setting: TR-FRET counterscreen, Table 8E, additional compounds.
Where [3] appears, read: TR-FRET, Table 8E, additional compounds, read-out: PCSK9Δhelix/Ab20 IC50.
[4] abbreviates: TR-FRET, Table 8E, additional compounds, read-out: PCSK9/EGF(A) IC50.

Where two headings read alike, the source gives them in different places. Numbered stars: 1 amine (or outer) side, 2 acyl side, 3 side chain; on linkers, the order of the positions; unused ones are H or OH. Bridge positions count the residues as written; N and C are the ends. Square brackets hold non-standard residues; d marks the D form. Peptide text beside a SMILES is read from it. * marks the point of attachment. Trp(6-Br) = N[C@@H](Cc1c[nH]c2cc(Br)ccc12)C(=O)O; Butanoyl(4-(4-HOPh)) = O=C(CCCc1ccc(O)cc1)*; Dihydrocaffeoyl = O=C(CCc1ccc(O)c(O)c1)*; X9 = O=C([C@@H]1C(O)CCN1[*:1])[*:2]; X17 = O=C([C@H]1C[C@@H]1c1cccnc1)*; hArg = N=C(N)NCCCC[C@H](N)C(=O)O; X8 = O=C(c1ccc(N2CCOCC2)nc1)*; X42 = O=C(c1ccc2cc[nH]c2c1)*; X25 = COc1cc(CCC(=O)*)ccc1O; Pentanoyl = CCCCC(=O)*

Sequence of PCSK9 (Q8NBP7 153-692): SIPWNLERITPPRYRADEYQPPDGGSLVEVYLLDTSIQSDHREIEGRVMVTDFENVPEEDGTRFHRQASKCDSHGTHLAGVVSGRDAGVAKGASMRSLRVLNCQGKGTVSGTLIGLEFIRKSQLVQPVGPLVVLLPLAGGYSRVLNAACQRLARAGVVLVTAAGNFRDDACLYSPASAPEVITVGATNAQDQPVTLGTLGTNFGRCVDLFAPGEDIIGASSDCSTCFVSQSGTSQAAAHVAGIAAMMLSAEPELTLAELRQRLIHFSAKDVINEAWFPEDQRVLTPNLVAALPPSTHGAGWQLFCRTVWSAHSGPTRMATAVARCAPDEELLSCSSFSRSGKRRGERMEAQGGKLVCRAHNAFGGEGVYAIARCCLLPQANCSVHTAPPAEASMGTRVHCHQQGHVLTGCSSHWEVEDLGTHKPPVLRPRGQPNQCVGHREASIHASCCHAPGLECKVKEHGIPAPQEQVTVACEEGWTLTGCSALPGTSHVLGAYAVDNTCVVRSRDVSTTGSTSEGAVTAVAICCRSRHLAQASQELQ
Sequence of PCSK9 (Q8NBP7 31-152 partner limits assumed): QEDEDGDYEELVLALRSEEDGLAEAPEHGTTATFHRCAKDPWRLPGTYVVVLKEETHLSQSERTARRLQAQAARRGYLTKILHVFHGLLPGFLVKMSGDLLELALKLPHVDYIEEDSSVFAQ
T1 sequence (Q8NBP7 with tags, fused parts or gaps limits assumed): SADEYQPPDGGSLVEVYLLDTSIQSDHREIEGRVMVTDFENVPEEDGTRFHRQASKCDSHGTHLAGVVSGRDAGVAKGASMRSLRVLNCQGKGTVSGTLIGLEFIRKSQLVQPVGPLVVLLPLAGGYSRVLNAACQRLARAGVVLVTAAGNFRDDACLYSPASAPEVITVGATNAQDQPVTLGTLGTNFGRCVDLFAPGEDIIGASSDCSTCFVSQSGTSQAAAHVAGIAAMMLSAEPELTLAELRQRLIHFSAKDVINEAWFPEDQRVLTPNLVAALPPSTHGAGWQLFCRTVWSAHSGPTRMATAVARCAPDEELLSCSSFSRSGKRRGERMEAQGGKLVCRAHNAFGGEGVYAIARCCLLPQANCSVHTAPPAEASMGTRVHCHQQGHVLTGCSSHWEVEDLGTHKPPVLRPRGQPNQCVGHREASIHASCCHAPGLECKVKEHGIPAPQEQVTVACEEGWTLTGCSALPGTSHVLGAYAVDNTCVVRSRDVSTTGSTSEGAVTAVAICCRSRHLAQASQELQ
T1 sequence (Q8NBP7 31-152 partner limits assumed): as the sequence (Q8NBP7 31-152 partner limits assumed) above
Method for His-EGF(A)-Fc: The former was based on a TF-FRET assay to measure the association of the EGF(A) domain of the LDLR to PCSK9 (“PCSK9/EGF(A) binding assay”) whilst the latter was based on a TR-FRET assay to measure binding of Ab20 to PCSK9Δhelix (“PCSK9Δhelix/Ab20 binding assay”).
The ability of compounds to inhibit binding to PCSK9 was evaluated with a panel of time-resolved fluorescence resonance energy transfer (TR-FRET) binding assays. […] The PCSK9Δhelix/Ab20 binding assay evaluated the ability of compounds to compete with Ab20 for binding to the N-terminal groove region in a His-tagged, PCSK9Δhelix construct. […] Signal generation in the PCSK9 binding assays was dependent upon the binding interaction to bring into close proximity the His-tag on the PCSK9 and the Fc-tag on the ligand. Anti-His-APC was bound to the His-tag, and anti-Fc-europium was bound to the Fc-tag. When these two antibodies were in close proximity and were irradiated with light at 340 nm, the europium was excited and emitted energy at 615 nm. This energy was taken up by the APC and was emitted as light at 665 nm. Compounds that competed with the ligand reduced the energy transfer and thus the emission at 665 nm. In the His-EGFA-Fc molecule in the counterscreen, the two tags were always in close proximity, thus any reduction in emission at 665 nm was due to interference with the detection system.
Compounds were solubilized and dilutions were prepared in DMSO. […] The plate was centrifuged to mix the well contents and allowed to incubate for 30 min. […] The TR-FRET signal was read on a ViewLux reader (PerkinElmer) with excitation at 340 nm and emission at 615 and 665 nm with a 50-μs time delay between excitation and measurement of emission. The TR-FRET ratio was calculated as the fluorescence emission at 665 nm divided by the fluorescence emission at 615 nm. The normalized TR-FRET ratios were plotted as a function of the compound concentrations, and the IC50 values were determined using a 4-parameter logistic regression.
In black 1536-well assay plates (MaKO, Aurora® Microplates, Whitefish, Mont.), 40 nL of peptide in DMSO were preincubated with 2 μL His-tagged PCSK9 plus anti-His-allophycocyanin in assay buffer (50 mM Tris-HCl, pH 7.5, 150 mM NaCl, 2 mM CaCl2, 0.01% Tween®-20, 0.1% bovine gamma globulins, and protease inhibitor cocktail) for 30 min. Then 2 μL of Fc-tagged ligand and anti-Fc-europium in assay buffer were added and allowed to incubate for 2 h.

`CC(=O)N[C@H](C(=O)N[C@H](C(=O)N[C@@H](Cc1ccccc1)C(=O)N[C@H](C(=O)N[C@@H](CO)C(=O)N[C@@H](Cc1c[nH]c2ccccc12)C(=O)N[C@@H](CCC(=O)O)C(=O)N[C@@H](CCC(=O)O)C(=O)N[C@@H](Cc1ccc(O)cc1)C(=O)N[C@@H](CC(C)C)C(=O)N[C@@H](CC(=O)O)C(=O)N[C@@H](Cc1c[nH]c2ccccc12)C(=O)N[C@H](C(=O)NCC(=O)N[C@@H](CO)C(=O)NCC(=O)N[C@H]1CSSC[C@@H](C(N)=O)NC(=O)CNC(=O)[C@H](CCC(N)=O)NC(=O)[C@H](CO)NC(=O)CNC(=O)[C@H](C(C)C)NC(=O)[C@H](CCCNC(=N)N)NC(=O)[C@H](CCCCN)NC(=O)[C@H](CC(C)C)NC(=O)[C@H](CC(N)=O)NC(=O)[C@H](Cc2c[nH]c3ccccc23)NC1=O)C(C)C)[C@@H](C)O)C(C)C)[C@@H](C)O` [Compound 12] (Ac-TVFTSWEEYLDWVGSGCWNLKRVGSQGC-NH2; disulfide 17-28): in the test on His-EGF(A)-Fc (counterscreen, Example 7), the IC50 was more than 50 µM.
With `CC(=O)N[C@H](C(=O)N[C@H](C(=O)N[C@@H](Cc1ccccc1)C(=O)N[C@H](C(=O)N[C@@H](CO)C(=O)N[C@@H](Cc1c[nH]c2ccccc12)C(=O)N[C@@H](CCC(=O)O)C(=O)N[C@@H](CCC(=O)O)C(=O)N[C@@H](Cc1ccc(O)cc1)C(=O)N[C@@H](CC(C)C)C(=O)N[C@@H](CC(=O)O)C(=O)N[C@@H](Cc1c[nH]c2ccccc12)C(=O)N[C@H](C(=O)NCCCCCCC(=O)N[C@@H](CCCCN)C(=O)N[C@@H](CC(C)C)C(=O)N[C@@H](Cc1c[nH]c2ccccc12)C(=O)N[C@@H](CC(N)=O)C(=O)N[C@@H](CC(C)C)C(=O)NCC(=O)N[C@@H](CCCNC(=N)N)C(=O)N[C@H](C(N)=O)C(C)C)C(C)C)[C@@H](C)O)C(C)C)[C@@H](C)O` [Compound 16], the IC50 is more than 50 µM with His-EGF(A)-Fc (counterscreen, Example 7) and 0.028 µM on PCSK9Δhelix (setting [1]).
In the same order, the values of `CC(=O)N[C@H](C(=O)N[C@H](C(=O)N[C@@H](Cc1ccccc1)C(=O)N[C@H](C(=O)N[C@@H](CO)C(=O)N[C@@H](Cc1c[nH]c2ccccc12)C(=O)N[C@@H](CCC(=O)O)C(=O)N[C@@H](CCC(=O)O)C(=O)N[C@@H](Cc1ccc(O)cc1)C(=O)N[C@@H](CC(C)C)C(=O)N[C@@H](CC(=O)O)C(=O)N[C@@H](Cc1c[nH]c2ccccc12)C(=O)N[C@H](C(=O)NCCCCCC(=O)N[C@@H](CCCCN)C(=O)N[C@@H](CC(C)C)C(=O)N[C@@H](Cc1c[nH]c2ccccc12)C(=O)N[C@@H](CC(N)=O)C(=O)N[C@@H](CC(C)C)C(=O)NCC(=O)N[C@@H](CCCNC(=N)N)C(=O)N[C@H](C(N)=O)C(C)C)C(C)C)[C@@H](C)O)C(C)C)[C@@H](C)O` [Compound 18] are more than 50 µM and 0.04 µM.
Regarding `CC[C@H](C)[C@@H]1NC(=O)[C@H](CCCNC(=N)N)NC(=O)[C@H](CCC(N)=O)NC(=O)[C@H](CC(C)C)NC(=O)[C@H](CC(N)=O)NC(=O)[C@H](Cc2c[nH]c3ccccc23)NC(=O)[C@@H]2C(O)CCN2C(=O)[C@H](CC(C)C)NC(=O)[C@H](CCCNC(=N)N)NC(=O)[C@@H](NC(=O)CNC(=O)[C@H](CO)NC(C)=O)CSSC[C@@H](C(N)=O)NC(=O)[C@@H]2CCCN2C(=O)[C@H](CC(C)C)NC(=O)CNC1=O` (stereo partly shown) [Compound 37] (Ac-SGCRL[X9]WNLQRIGLPC-NH2; disulfide 3-16), the IC50 with His-EGF(A)-Fc (TR-FRET counterscreen, Table 8D, * = some inhibition at highest concentrations, not sufficient to fit an IC50) was more than 50 µM.
For `CCCCC(=O)N[C@@H](Cc1c[nH]c2cc(Br)ccc12)C(=O)N[C@@H](CC(N)=O)C(=O)N[C@@H](CC(C)C)C(=O)N[C@H](C(=O)N[C@@H](CCCNC(=N)N)C(=O)N[C@H](C(=O)NCC(=O)N[C@@H](CC(C)C)C(=O)N[C@H](C(=O)N[C@@H](CCCNC(=N)N)C(N)=O)[C@@H](C)O)[C@@H](C)CC)C(C)C` [Compound 187] (Pentanoyl-[Trp(6-Br)]NLVRIGLTR-NH2), the IC50 in the test on His-EGF(A)-Fc (setting [2]) worked out at 38 µM.
Turning to `CC[C@H](C)[C@H](NC(=O)[C@H](CCCCNC(=N)N)NC(=O)[C@@H](NC(=O)[C@H](CC(C)C)NC(=O)[C@H](CC(N)=O)NC(=O)[C@H](Cc1c[nH]c2ccccc12)NC(=O)c1ccc(N2CCOCC2)nc1)C(C)C)C(=O)NCC(=O)N[C@@H](CC(C)C)C(=O)N[C@@H](CC(C)C)C(=O)N[C@@H](CCCNC(=N)N)C(N)=O` [Compound 219] (X8-WNLV[hArg]IGLLR-NH2), the figures for the IC50 at PCSK9Δhelix (setting [3]) and on PCSK9 (setting [4]) were 0.68 µM and 9.9 µM, respectively.
Taken in the same sequence, the figures for `CC[C@H](C)[C@H](NC(=O)[C@H](CCCCNC(=N)N)NC(=O)[C@@H](NC(=O)[C@H](CC(C)C)NC(=O)[C@H](CC(N)=O)NC(=O)[C@H](Cc1c[nH]c2ccccc12)NC(=O)CCCc1ccc(O)cc1)C(C)C)C(=O)NCC(=O)N[C@@H](CC(C)C)C(=O)N[C@@H](CC(C)C)C(=O)N[C@@H](CCCNC(=N)N)C(N)=O` [Compound 220] ({Butanoyl(4-(4-HOPh))}-WNLV[hArg]IGLLR-NH2) were 0.91 µM and 37 µM.
In the case of `CC[C@H](C)[C@H](NC(=O)[C@H](CCCCNC(=N)N)NC(=O)[C@@H](NC(=O)[C@H](CC(C)C)NC(=O)[C@H](CC(N)=O)NC(=O)[C@H](Cc1c[nH]c2ccccc12)NC(=O)c1ccc2cc[nH]c2c1)C(C)C)C(=O)NCC(=O)N[C@@H](CC(C)C)C(=O)N[C@@H](CC(C)C)C(=O)N[C@@H](CCCNC(=N)N)C(N)=O` [Compound 222] (X42-WNLV[hArg]IGLLR-NH2), the IC50 at PCSK9Δhelix (setting [3]) turned out to be 1.4 µM; at PCSK9 (setting [4]), 21 µM.
With `CC[C@H](C)[C@H](NC(=O)[C@H](CCCCNC(=N)N)NC(=O)[C@@H](NC(=O)[C@H](CC(C)C)NC(=O)[C@H](CC(N)=O)NC(=O)[C@H](Cc1c[nH]c2ccccc12)NC(=O)[C@H](N)Cc1ccc(O)cc1)C(C)C)C(=O)NCC(=O)N[C@@H](CC(C)C)C(=O)N[C@@H](CC(C)C)C(=O)N[C@@H](CCCNC(=N)N)C(N)=O` [Compound 223] (H-[dY]WNLV[hArg]IGLLR-NH2), the IC50 at PCSK9Δhelix (setting [3]) was 1.4 µM; at PCSK9 (setting [4]), 21 µM.
In the same order, the values of `CC[C@H](C)[C@H](NC(=O)[C@H](CCCCNC(=N)N)NC(=O)[C@@H](NC(=O)[C@H](CC(C)C)NC(=O)[C@H](CC(N)=O)NC(=O)[C@H](Cc1c[nH]c2ccccc12)NC(=O)CCc1ccc(O)c(O)c1)C(C)C)C(=O)NCC(=O)N[C@@H](CC(C)C)C(=O)N[C@@H](CC(C)C)C(=O)N[C@@H](CCCNC(=N)N)C(N)=O` [Compound 224] (Dihydrocaffeoyl-WNLV[hArg]IGLLR-NH2) are 0.53 µM and 7 µM.
Turning to `CC[C@H](C)[C@H](NC(=O)[C@H](CCCCNC(=N)N)NC(=O)[C@@H](NC(=O)[C@H](CC(C)C)NC(=O)[C@H](CC(N)=O)NC(=O)[C@H](Cc1c[nH]c2ccccc12)NC(=O)[C@H]1C[C@@H]1c1cccnc1)C(C)C)C(=O)NCC(=O)N[C@@H](CC(C)C)C(=O)N[C@@H](CC(C)C)C(=O)N[C@@H](CCCNC(=N)N)C(N)=O` [Compound 225] (X17-WNLV[hArg]IGLLR-NH2), the IC50 on PCSK9Δhelix (setting [3]) was 1.8 µM; at PCSK9 (setting [4]), 27 µM.
As for `CC[C@H](C)[C@H](NC(=O)[C@H](CCCCNC(=N)N)NC(=O)[C@@H](NC(=O)[C@H](CC(C)C)NC(=O)[C@H](CC(N)=O)NC(=O)[C@H](Cc1c[nH]c2ccccc12)NC(=O)[C@@H](N)Cc1ccc(O)cc1)C(C)C)C(=O)NCC(=O)N[C@@H](CC(C)C)C(=O)N[C@@H](CC(C)C)C(=O)N[C@@H](CCCNC(=N)N)C(N)=O` [Compound 226] (H-YWNLV[hArg]IGLLR-NH2), the IC50 turned out to be 0.35 µM on PCSK9Δhelix (setting [3]) and 6.2 µM at PCSK9 (setting [4]).
With `CC[C@H](C)[C@H](NC(=O)[C@H](CCCCNC(=N)N)NC(=O)[C@@H](NC(=O)[C@H](CC(C)C)NC(=O)[C@H](CC(N)=O)NC(=O)[C@H](Cc1c[nH]c2ccccc12)NC(=O)CCc1ccc(O)c(OC)c1)C(C)C)C(=O)NCC(=O)N[C@@H](CC(C)C)C(=O)N[C@@H](CC(C)C)C(=O)N[C@@H](CC(N)=O)C(N)=O` [Compound 238] (X25-WNLV[hArg]IGLLN-NH2), the values for the IC50 on PCSK9Δhelix (setting [3]) and at PCSK9 (setting [4]) were 0.33 µM and 7.7 µM, respectively.
As to `CC[C@H](C)[C@H](NC(=O)[C@H](CCCCNC(=N)N)NC(=O)[C@@H](NC(=O)[C@H](CC(C)C)NC(=O)[C@H](CC(N)=O)NC(=O)[C@H](Cc1c[nH]c2ccccc12)NC(=O)CCc1ccc(O)c(OC)c1)C(C)C)C(=O)NCC(=O)N[C@@H](CCC(N)=O)C(=O)N[C@@H](CCCNC(=N)N)C(N)=O` [Compound 239] (X25-WNLV[hArg]IGQR-NH2), the IC50 on PCSK9Δhelix (PCSK9Δhelix/Ab20 IC50, TR-FRET, Table 8E, additional compounds) worked out at 1.2 µM; on PCSK9, 32 µM.
`CC[C@H](C)[C@H](NC(=O)[C@H](CCCCNC(=N)N)NC(=O)[C@@H](NC(=O)[C@H](CC(C)C)NC(=O)[C@H](CC(N)=O)NC(=O)[C@H](Cc1c[nH]c2ccccc12)NC(=O)CCc1ccc(O)c(OC)c1)C(C)C)C(=O)NCC(=O)N[C@@H](CC(N)=O)C(=O)N[C@@H](CCCNC(=N)N)C(N)=O` [Compound 240] (X25-WNLV[hArg]IGNR-NH2): the IC50 at PCSK9Δhelix (setting [3]) stood at 0.92 µM; on PCSK9 (setting [4]), 31 µM.
Turning to `CC[C@H](C)[C@@H]1NC(=O)[C@H](CCCNC(=N)N)NC(=O)[C@H](CCC(N)=O)NC(=O)[C@H](CC(C)C)NC(=O)[C@H](CC(N)=O)NC(=O)[C@H](Cc2c[nH]c3ccccc23)NC(=O)[C@@H]2C(O)CCN2C(=O)[C@H]([C@@H](C)CC)NC(=O)[C@H](Cc2ccccc2)NC(=O)[C@@H](NC(=O)CNC(=O)[C@H](CO)NC(C)=O)CSSC[C@@H](C(N)=O)NC(=O)[C@H](CC(C)C)NC(=O)[C@H](CC(C)C)NC(=O)CNC1=O` (stereo partly shown) [Compound 242] (Ac-SGCFI[X9]WNLQRIGLLC-NH2; disulfide 3-16), the IC50 with His-EGF(A)-Fc (setting [2]) was not below 50 µM.
